The source of these data is paper doi:10.1101/2022.10.08.511437v2 (biorxiv, 2023).

pEC50: −log10 of the molar value.

Broadly, the pEC50 is the EC50 on a negative log10 scale, so that one unit is a factor of ten. A lower pEC50 goes with a large EC50.

The target of experiment [1] is T1, full-length elephant shark GR (Callorhinchus milii, UniProt V9KGN8).
T1 sequence (V9KGN8 1-704): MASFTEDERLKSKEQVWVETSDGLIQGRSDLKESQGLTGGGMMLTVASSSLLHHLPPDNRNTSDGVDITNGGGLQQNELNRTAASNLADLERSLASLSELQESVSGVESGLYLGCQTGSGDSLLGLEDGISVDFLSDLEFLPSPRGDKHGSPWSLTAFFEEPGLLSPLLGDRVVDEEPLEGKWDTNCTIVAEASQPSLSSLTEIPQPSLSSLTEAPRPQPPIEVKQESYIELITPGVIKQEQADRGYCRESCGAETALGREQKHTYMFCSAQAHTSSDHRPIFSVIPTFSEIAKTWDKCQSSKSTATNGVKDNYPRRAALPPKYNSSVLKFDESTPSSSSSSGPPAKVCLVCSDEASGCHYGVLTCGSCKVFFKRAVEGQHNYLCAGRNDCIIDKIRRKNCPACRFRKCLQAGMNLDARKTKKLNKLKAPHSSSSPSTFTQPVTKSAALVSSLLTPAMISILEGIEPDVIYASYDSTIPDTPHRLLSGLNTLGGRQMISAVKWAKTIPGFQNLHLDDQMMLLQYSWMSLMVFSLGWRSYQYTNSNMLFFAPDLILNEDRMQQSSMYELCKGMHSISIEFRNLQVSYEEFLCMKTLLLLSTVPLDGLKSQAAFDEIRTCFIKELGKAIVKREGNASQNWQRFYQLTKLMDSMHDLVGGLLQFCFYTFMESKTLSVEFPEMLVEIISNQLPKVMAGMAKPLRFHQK
Kind of experiment: cell-based. On the set-up: species or system HEK293.

In experiment [2] the target is T1, full-length elephant shark GR. Kind of experiment: cell-based. Details: species or system HEK293. The source holds these as a separate data set.
For experiment [3] the target is unchanged. Description: luciferase reporter transactivation in HEK293 cells. It is filed as cell-based.
In experiment [4] the target is T2, full-length elephant shark MR (Callorhinchus milii, UniProt A0A4W3I5J5).
T2 sequence (A0A4W3I5J5 1-956): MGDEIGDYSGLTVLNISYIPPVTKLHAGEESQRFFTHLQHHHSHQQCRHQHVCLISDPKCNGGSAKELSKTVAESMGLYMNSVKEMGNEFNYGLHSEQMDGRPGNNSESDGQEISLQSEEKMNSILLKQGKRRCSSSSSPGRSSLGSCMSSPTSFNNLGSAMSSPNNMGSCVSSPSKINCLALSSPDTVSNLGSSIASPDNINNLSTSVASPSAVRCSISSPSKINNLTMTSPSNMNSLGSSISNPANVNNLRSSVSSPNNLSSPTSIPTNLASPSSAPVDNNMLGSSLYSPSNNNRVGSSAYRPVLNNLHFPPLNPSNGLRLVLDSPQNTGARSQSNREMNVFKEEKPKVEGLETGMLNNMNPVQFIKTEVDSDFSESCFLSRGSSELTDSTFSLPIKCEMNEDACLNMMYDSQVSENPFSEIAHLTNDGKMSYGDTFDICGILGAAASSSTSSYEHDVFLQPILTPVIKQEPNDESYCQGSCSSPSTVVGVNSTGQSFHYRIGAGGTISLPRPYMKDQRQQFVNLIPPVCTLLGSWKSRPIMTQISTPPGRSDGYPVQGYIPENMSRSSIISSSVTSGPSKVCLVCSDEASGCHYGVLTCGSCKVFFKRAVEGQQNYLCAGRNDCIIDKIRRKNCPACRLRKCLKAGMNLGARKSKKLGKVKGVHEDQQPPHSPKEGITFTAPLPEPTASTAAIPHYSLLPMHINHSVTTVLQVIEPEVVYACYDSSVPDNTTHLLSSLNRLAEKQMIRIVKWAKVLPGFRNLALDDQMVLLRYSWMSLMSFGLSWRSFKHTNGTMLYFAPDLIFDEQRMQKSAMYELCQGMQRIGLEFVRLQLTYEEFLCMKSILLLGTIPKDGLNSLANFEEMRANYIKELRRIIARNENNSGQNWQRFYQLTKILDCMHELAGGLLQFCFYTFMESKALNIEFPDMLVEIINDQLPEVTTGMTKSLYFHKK
Kind of experiment: cell-based. Details: species or system HEK293.

With `C[C@]12CC[C@H]3[C@@H](CCC4=CC(=O)CC[C@@]43C)[C@@H]1CC[C@@H]2C(=O)CO` [11-deoxycorticosterone], the pEC50 was 7.95 in experiment [1] and 7.96 in experiment [2].
For `C[C@]12CCC(=O)C=C1CC[C@@H]1[C@@H]2CC[C@@]2(C)[C@H]1CC[C@]2(O)C(=O)CO` [11-deoxycortisol], the pEC50 is 6.54 in experiment [3] and 9.70 in experiment [4].
For `C[C@]12CCC(=O)C=C1CC[C@@H]1[C@@H]2[C@@H](O)C[C@]2(C=O)[C@@H](C(=O)CO)CC[C@@H]12` [aldosterone], the pEC50 in experiment [4] was 10.10.
Same read-out and setting: the result for `C[C@]12C[C@H](O)[C@H]3[C@@H](CCC4=CC(=O)CC[C@@]43C)[C@@H]1CC[C@@H]2C(=O)CO` [corticosterone] reads 9.00; that for `C[C@]12CCC(=O)C=C1CC[C@@H]1[C@@H]2[C@@H](O)C[C@@]2(C)[C@H]1CC[C@]2(O)C(=O)CO` [cortisol], 8.62.
